Bridge positions count the residues as written; N and C are the ends. Square brackets hold non-standard residues; d marks the D form. Peptide text beside a SMILES is read from it. * marks the point of attachment. ξ: configuration not given here. Bip = N[C@@H](Cc1ccc(-c2ccccc2)cc1)C(=O)O; Phe(3-Me) = Cc1cccc(C[C@H](N)C(=O)O)c1; His(τ-Me) = Cn1cnc(C[C@H](N)C(=O)O)c1; hArg = N=C(N)NCCCC[C@H](N)C(=O)O; 4Pal = N[C@@H](Cc1ccncc1)C(=O)O; Cha = N[C@@H](CC1CCCCC1)C(=O)O; Cit = NC(=O)NCCC[C@H](N)C(=O)O; Thr(3ξ) = CC(O)[C@H](N)C(=O)O; 12Ado = NCCCCCCCCCCCC(=O)O; Carboxymethyl = O=C(O)C*; Orn = NCCC[C@H](N)C(=O)O; Pra = C#CC[C@H](N)C(=O)O; Aun = NCCCCCCCCCCC(=O)O; Dab = NCC[C@H](N)C(=O)O; Dap = NC[C@H](N)C(=O)O; AEEA = NCCOCCOCC(=O)O; ξC = NC(CS)C(=O)O

T1 sequence (Q15116 25-288): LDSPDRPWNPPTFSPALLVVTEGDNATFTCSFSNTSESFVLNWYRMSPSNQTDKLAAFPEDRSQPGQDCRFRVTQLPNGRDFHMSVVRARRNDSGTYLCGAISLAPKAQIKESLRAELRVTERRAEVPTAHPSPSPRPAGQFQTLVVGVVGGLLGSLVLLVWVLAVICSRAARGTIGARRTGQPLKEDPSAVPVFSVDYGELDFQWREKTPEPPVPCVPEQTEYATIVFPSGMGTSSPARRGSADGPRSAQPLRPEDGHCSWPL

The experiment addresses T1, PD-1/PD-L1 interaction (PE-labeled human PD-L1-Ig binding to Jurkat cell line over-expressing human PD-1) (Homo sapiens, UniProt Q15116).
T1 construct: expressed in transfected cells; host or cells: Jurkat
The experiment is described as follows: Jurkat-PD-1 Cell Binding High-Content Screening Assay (CBA). It is filed as cell-based. Particulars: Jurkat cell line over-expressing human PD-1; PE-labeled PD-L1-Ig 20 nM final; read-out: Jurkat hPD1-PDL1 IC50. The essentials: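 Binding of fluorescent PD-L1-Ig (phycoerythrin on Ig tag, 20 nM final, 1 h) measured by high-content imaging of fixed, Hoechst-counterstained Jurkat-hPD-1 cells. Compound added 2 h at 37° C beforehand, in DMEM with 10% fetal calf serum.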
For `Cc1cccc(C[C@@H]2NC(=O)[C@H](CC(=O)O)NC(=O)[C@H](Cc3ccc(OCC(=O)O)cc3)NC(=O)[C@H](CN)NC(=O)CSCC(C(=O)NCCOCCOCC(=O)NCCCCCCCCCCC(=O)O)NC(=O)[C@H](CCCN)NC(=O)[C@H](C(C)C)NC(=O)[C@H](CC3CCCCC3)NC(=O)[C@H](CCN)NC(=O)[C@@H](CC(C)C)NC(=O)[C@H](CCCN)NC(=O)[C@H](CCCNC(N)=O)NC(=O)[C@H](Cc3ccc(-c4ccccc4)cc3)NC(=O)[C@H](C(C)C)NC2=O)c1` (stereo partly drawn) [Compound 2647] ({CH2CO}-[Dap]Y(Carboxymethyl)D[Phe(3-Me)]V[Bip][Cit][Orn][dL][Dab][Cha]V[Orn][ξC][AEEA][Aun]-OH; thioether N-14), the IC50 stood at 7.7 nM.
To `Cc1cccc(C[C@@H]2NC(=O)[C@H](CC(=O)O)NC(=O)[C@H](Cc3ccc(OCC(=O)O)cc3)NC(=O)[C@H](CN)NC(=O)CSC[C@@H](C(=O)N[C@@H](CCN)C(=O)NCCOCCOCC(=O)NCCCCCCCCCCC(=O)O)NC(=O)[C@@H](CO)NC(=O)[C@H](C(C)C)NC(=O)[C@H](CC3CCCCC3)NC(=O)[C@H](CCN)NC(=O)[C@@H](CC(C)C)NC(=O)[C@H](CCCN)NC(=O)[C@H](C(C)C)NC(=O)[C@H](Cc3ccc(-c4ccccc4)cc3)NC(=O)[C@H](Cc3ccc(O)cc3)NC2=O)c1` [Compound 2017] ({CH2CO}-[Dap]Y(Carboxymethyl)D[Phe(3-Me)]Y[Bip]V[Orn][dL][Dab][Cha]V[dS]C[Dab][AEEA][Aun]-OH; thioether N-14) belongs 19.3 nM; to `Cc1cccc(C[C@@H]2NC(=O)[C@H](CC(=O)O)NC(=O)[C@H](Cc3ccc(OCC(=O)O)cc3)NC(=O)[C@H](CCCNC(=N)N)NC(=O)CSC[C@@H](C(=O)N[C@@H](CCCN)C(=O)NCCCCCCCCCCC(=O)O)NC(=O)[C@H](CCC(=O)O)NC(=O)[C@H](C(C)C)NC(=O)[C@H](CC3CCCCC3)NC(=O)[C@H](CCN)NC(=O)[C@@H](CC(C)C)NC(=O)[C@H](CCN)NC(=O)[C@H](Cc3ccc(O)cc3)NC(=O)[C@H](Cc3ccc(-c4ccccc4)cc3)NC(=O)[C@H](C(C)C)NC2=O)c1` [Compound 2819] ({CH2CO}-RY(Carboxymethyl)D[Phe(3-Me)]V[Bip]Y[Dab][dL][Dab][Cha]VEC[Orn][Aun]-OH; thioether N-14), 21 nM.
To `CC(C)C[C@H]1NC(=O)[C@H](CCCN)NC(=O)[C@H](C(C)C)NC(=O)[C@H](Cc2ccc(-c3ccccc3)cc2)NC(=O)[C@H](C(C)C)NC(=O)[C@H](Cc2c[nH]c3ccccc23)NC(=O)[C@H](CC(=O)O)NC(=O)[C@H](Cc2ccc(OCC(=O)O)cc2)NC(=O)[C@H](C(C)O)NC(=O)CSC[C@@H](C(=O)N[C@@H](CCN)C(=O)NCCCCCCCCCCC(=O)O)NC(=O)[C@H](CO)NC(=O)[C@H](CCCCN)NC(=O)[C@H](CC2CCCCC2)NC(=O)[C@H](CCN)NC1=O` (stereo partly drawn) [Compound 3666] ({CH2CO}-[Thr(3ξ)]Y(Carboxymethyl)DWV[Bip]V[Orn][dL][Dab][Cha]KSC[Dab][Aun]-OH; thioether N-14) belongs 32 nM; to `Cc1cccc(C[C@@H]2NC(=O)[C@H](CC(=O)O)NC(=O)[C@H](Cc3ccc(OCC(=O)O)cc3)NC(=O)[C@H](CCCNC(=N)N)NC(=O)CSC[C@@H](C(=O)NCCOCCOCC(=O)NCCCCCCCCCCC(=O)O)NC(=O)[C@H](C(C)O)NC(=O)[C@H](C(C)C)NC(=O)[C@H](CC3CCCCC3)NC(=O)[C@H](CCN)NC(=O)[C@@H](CC(C)C)NC(=O)[C@H](CCCNC(N)=O)NC(=O)[C@H](Cc3ccc(OCC(=O)O)cc3)NC(=O)[C@H](Cc3ccc(-c4ccccc4)cc3)NC(=O)[C@H](Cc3ccc(OCC(=O)O)cc3)NC2=O)c1` (stereo partly drawn) [Compound 3481] ({CH2CO}-RY(Carboxymethyl)D[Phe(3-Me)]Y(Carboxymethyl)[Bip]Y(Carboxymethyl)[Cit][dL][Dab][Cha]V[Thr(3ξ)]C[AEEA][Aun]-OH; thioether N-14), 71.6 nM.
To `Cc1cccc(C[C@@H]2NC(=O)[C@H](CC(=O)O)NC(=O)[C@H](Cc3ccncc3)NC(=O)[C@H](Cc3ccc(OCC(=O)O)cc3)NC(=O)CSC[C@@H](C(=O)N[C@@H](CCCNC(=N)N)C(=O)NCCCCCCCCCCC(=O)O)NC(=O)[C@H]([C@@H](C)O)NC(=O)[C@H](C(C)C)NC(=O)[C@H](CC3CCCCC3)NC(=O)[C@H](CCN)NC(=O)[C@@H](CC(C)C)NC(=O)[C@H](CCCN)NC(=O)[C@H](C(C)C)NC(=O)[C@H](Cc3ccc(-c4ccccc4)cc3)NC(=O)[C@H](C(C)C)NC2=O)c1` [Compound 1167] ({CH2CO}-Y(Carboxymethyl)[4Pal]D[Phe(3-Me)]V[Bip]V[Orn][dL][Dab][Cha]VTCR[Aun]-OH; thioether N-14) belongs 80.1 nM.
As for `Cc1cccc(C[C@@H]2NC(=O)[C@H](CC(=O)O)NC(=O)[C@H](Cc3ccc(OCC(=O)O)cc3)NC(=O)[C@H](Cc3cn(C)cn3)NC(=O)CSC[C@@H](C(=O)N[C@@H](CCN)C(=O)NCCCCCCCCCCC(=O)O)NC(=O)[C@H]([C@@H](C)O)NC(=O)[C@H](C(C)C)NC(=O)[C@H](CC3CCCCC3)NC(=O)[C@H](CCN)NC(=O)[C@@H](CC(C)C)NC(=O)[C@H](CCCN)NC(=O)[C@H](CCCNC(N)=O)NC(=O)[C@H](Cc3ccc(-c4ccccc4)cc3)NC(=O)[C@H](C(C)C)NC2=O)c1` [Compound 2036] ({CH2CO}-[His(τ-Me)]Y(Carboxymethyl)D[Phe(3-Me)]V[Bip][Cit][Orn][dL][Dab][Cha]VTC[Dab][Aun]-OH; thioether N-14), the IC50 stood at 14.4 nM.
Regarding `Cc1cccc(C[C@@H]2NC(=O)[C@H](CC(=O)O)NC(=O)[C@H](Cc3ccc(OCC(=O)O)cc3)NC(=O)[C@H](CCCCNC(=N)N)NC(=O)CSC[C@@H](C(=O)N[C@@H](CCCN)C(=O)N[C@@H](CO)C(=O)NCCCCCCCCCCCC(=O)O)NC(=O)[C@H](C(C)O)NC(=O)[C@H](C(C)C)NC(=O)[C@H](CC3CCCCC3)NC(=O)[C@H](CCN)NC(=O)[C@@H](CC(C)C)NC(=O)[C@H](CCCN)NC(=O)[C@H](CCCNC(N)=O)NC(=O)[C@H](Cc3ccc(-c4ccccc4)cc3)NC(=O)[C@H](C(C)C)NC2=O)c1` (stereo partly drawn) [Compound 3187] ({CH2CO}-[hArg]Y(Carboxymethyl)D[Phe(3-Me)]V[Bip][Cit][Orn][dL][Dab][Cha]V[Thr(3ξ)]C[Orn]S[12Ado]-OH; thioether N-14), the IC50 is 9.7 nM.
To `C#CC[C@H](NC(=O)COCCOCCNC(=O)[C@@H]1CSCC(=O)N[C@@H](Cc2ccncc2)C(=O)N[C@@H](Cc2ccc(OCC(=O)O)cc2)C(=O)N[C@@H](CC(=O)O)C(=O)N[C@@H](Cc2c[nH]c3ccccc23)C(=O)N[C@@H](C(C)C)C(=O)N[C@@H](Cc2ccc(-c3ccccc3)cc2)C(=O)N[C@@H]([C@@H](C)CC)C(=O)N[C@@H](CCCN)C(=O)N[C@H](CC(C)C)C(=O)N[C@@H](CCN)C(=O)N[C@@H](CC(C)C)C(=O)N[C@@H](C(C)C)C(=O)N[C@@H]([C@@H](C)O)C(=O)N1)C(=O)N[C@@H](CCCN)C(=O)NCCCCCCCCCCC(=O)O` [Compound 1213] ({CH2CO}-[4Pal]Y(Carboxymethyl)DWV[Bip]I[Orn][dL][Dab]LVTC[AEEA][Pra][Orn][Aun]-OH; thioether N-14) belongs 32.8 nM.

The record behind these values is patent US20260022142A1, “MACROCYCLIC IMMUNOMODULATORS” (Bristol-Myers Squibb Company, priority 2022, published 2026).
